Measurements published in patent US9242962B2, “Method of treatment” (GlaxoSmithKline Intellectual Property (No. 2) Limited, priority 2011, dated 2016).

Experiments:
[1] = test system: CD4+ T cells; assay: T cell receptor-induced cytokine production in CD4+ T cells (multiplex ELISA); type: cell-based, human; conditions: for IC50: Homo sapiens, CD4+ T, n=4, ±sem, read-out: pIC50, T cell receptor-induced production of IL-2 in CD4+ T cells (converted)
Protocol: (§1) 15 mls ficoll was added to 8×50 mL accuspin tubes per donor and centrifuged at 2000 RPM for 1 min. Whole blood samples (200 mL+1% heparin) were collected from human donors. Approximately 25 ml blood was added to each ficoll pre-filled 50 ml falcon tubes with filter and centrifuged at 1500 RPM for 20 min with the brake off to avoid disturbing cell separation. 45 ml with PBS was added to the PBMC fraction of each tube and centrifuged at 1500 RPM for 10 min with brake. Supernatant were discarded and cell pellets resuspended in 2 ml PBS. Cell suspensions for each donor were recombined into a single falcon tube, made up to 45 ml with PBS and centrifuged at 1500 RPM for 10 min. CD4+ T cells were isolated by negative depletion using a CD4 T cell Isolation Kit from Miltenyi Biotech according to manufacturers protocol.
96-well flat-bottom plates were coated with 10 μg/mL anti-CD3+2 μg/mL anti-CD28 at 4° C. overnight. The following day, plates were washed with PBS. For cytokine production studies, cells were added to anti-CD3+anti-CD28 pre-coated 96-well plates at 0.4×10^6 cells/well in the presence of EZH1/EZH2 inhibitors or vehicle and incubated at 37° C./5% CO2. Supernatants were taken 18 h (IL-2) or 72 h (IL-10, IL-13, IL-17, IFN, TNF) for determination of cytokine production by multiplex ELISA from Mesoscale discovery according to the manufacturers protocols.
(§2) Anti-CD3 (HU CD3 NALE MAB UCHT1; Cat #555329) and anti-CD28 (HU CD28 NALE MAB CD28.2; Cat #: 555725), were obtained from BD Pharmingen and dissolved in Dulbecco's Phosphate Buffered Saline (with Ca2+/Mg2+; Gibco). Ficoll-paque (Cat #17-1440-03) was obtained from GE Healthcare. The CD4+ T cell isolation kit (Cat #130-091-155) was obtained from Miltenyi Biotec. Cells were cultured in RPMI 1640 containing 10% FCS+1% pen/strep+1% L-glutamine. The CellTrace CFSE cell proliferation kit (Cat #C34554) was obtained from Invitrogen. Compound A, Compound B and Compound C were all synthesised in house and dissolved in 100% DMSO.
Data were analysed using Excel and are expressed as mean±standard error of the mean; n values are the numbers of human donors used. pIC50 values were generated using GraphPad Prism software and non-linear sigmoid dose curve-fit.

[2] = test system: CD4+ T cells; assay: T cell receptor-induced CD4+ T cell proliferation (CFSE, flow cytometry); type: cell-based, human; conditions: 10 μg/mL αCD3 + 2 μg/mL αCD28, 6 days; for IC50: Homo sapiens, CD4+ T, 144 h, division index by CFSE, n=4, ±sem, read-out: pIC50, T cell receptor-induced proliferation of CD4+ T cells (converted)
Protocol: as §1
96-well flat-bottom plates were coated with 10 μg/mL anti-CD3+2 μg/mL anti-CD28 at 4° C. overnight. The following day, plates were washed with PBS. For proliferation studies, cells were stained with CFSE (Invitrogen) according to manufacturer's protocol. […] Cells were then transferred to 96-well round-bottom plates, washed and then analysed by flow cytometry.
as §2
Flowjo Software was used to calculate a division index using fluorescence intensity. Data are expressed as mean±standard error of the mean; n values are the numbers of human donors used. pIC50 values were generated using GraphPad Prism software and non-linear sigmoid dose curve-fit.

How did the IC50 ([1]; 18 h post stimulation) turn out when CCCc1cc(C)[nH]c(=O)c1CNC(=O)c1cc(-c2ccc(N3CCN(C)CC3)nc2)cc2c1cnn2C(C)C [Compound A, 1-(1-methylethyl)-N-[(6-methyl-2-oxo-4-propyl-1,2-dihydro-3-pyridinyl)methyl]-6-[6-(4-methyl-1-piperazinyl)-3-pyridinyl]-1H-indazole-4-carboxamide] was run?
Its IC50 is 0.575 µM.

And the IC50 [2]?
The IC50 was 5.01 µM.

Cc1cc(C)c(CNC(=O)c2cc(-c3ccc(N4CCN(C)CC4)nc3)cc3c2c(C)cn3C(C)C)c(=O)[nH]1 [Compound B, N-[(4,6-dimethyl-2-oxo-1,2-dihydro-3-pyridinyl)methyl]-3-methyl-1-(1-methylethyl)-6-[6-(4-methyl-1-piperazinyl)-3-pyridinyl]-1H-indole-4-carboxamide] was tested. Which IC50 ([1]; 18 h post stimulation) did it give?
The IC50 was 1.74 µM.

What about the IC50 [2] of the same compound?
The IC50 was 11.7 µM.

How did the “effect on T cell receptor-induced production of IL-2 in CD4+ T cells” value ([1]; 18 h post stimulation, n=4, a pIC50 could not be calculated) turn out when Cc1ccc(CNC(=O)c2cc(C3CC3)nc3c2cnn3C(C)C)c(=O)[nH]1 [Compound C, 6-cyclopropyl-1-(1-methylethyl)-N-[(6-methyl-2-oxo-1,2-dihydro-3-pyridinyl)methyl]-1H-pyrazolo[3,4-b]pyridine-4-carboxamide] was run?
The value was “impaired”.

What about the “effect on T cell receptor-induced production of IL-17 or IFN in CD4+ T cells” value ([1]; 72 h post stimulation, n=4) of the same compound?
The value was “had no effect”.

What about the “effect on IL-10, IL-13 & TNF production” value ([1]; High concentrations (i.e. >15 μM), 72 h, n=4) of the same compound?
Its value is “reduced”.

What about the “effect on T cell receptor-induced proliferation of CD4+ T cells” value ([2]; n=4) of the same compound?
Its value is “had no effect”.
